Data from US20200164047A1, “THERAPY AND DIAGNOSIS OF DISEASE CHARACTERIZED BY ALTERATIONS IN THE DNA DAMAGE RESPONSE” (UNIVERSITÀ DEGLI STUDI DI MILANO, priority 2017, published 2020).

Key:
HCT116 xenograft tumors = assay: In vivo growth of HCT116 xenograft tumors; design: species or system mice
Excerpt: FIG. 13. […] Error bars indicate SEM.
(§1) FIG. 31. […] (B) Immunoblotting analysis of total cell lysates used for immunoprecipitation in (A).

[1] = tested on: cancer cell lines representative of different cancer types; assay: Proliferation of cancer cell lines by CellTiter-Glo assay; type: cell-based; conditions: nutrient-rich conditions
Experimental: (§2) FIG. 20. […] (F, G) Quantification of oxygen consumption rate normalized by cell numbers of cells cultured in DMEM medium containing the indicated concentrations of glucose for 12 hours (F) or in DMEM medium containing with 2.5 mM glucose for the indicated time points (G).
CellTiter Glo Luminescent Cell Viability Assay (Promega) was used according to manufacturer's protocol. Briefly, cells were plated in 96 well plates, treated 24h later with different doses of drugs in total volume of 100 μl. 24h later, 100 μl of CellTiter Glo reagent was added to the cells and incubated for 15 min at 37° C. and luminescence was measured using a Promega plate reader.

cancer cells = assay: Lactate production and glucose consumption of cancer cells; type: cell-based; conditions: metformin treatment
Experimental: as §2
Lactate production was measured using Lactate Assay Kit (Sigma Aldrich) according to manufacturer's instructions.

HCT116 and HeLa cells = conditions: low glucose conditions plus metformin, 24 h
Experimental: FIG. 14. […] (A) Images of HCT116 and HeLa cells cultured for 24 hours in either nutrient-rich DMEM (containing 10% FBS and 10 mM glucose), DMEM containing 2.5 mM glucose (glucose deprivation), DMEM with 0.1% serum (serum deprivation) or DMEM with no glutamine, no methionine and no cysteine (amino acids deprivation). Media were replenished every 6 hours. (B) Quantification of cell death of HCT116 and HeLa cells cultured as in A as measured by propidium iodide uptake using flow cytometry. […] Media were replenished every 6 hours.
as §1
Cells were harvested by trypsinization, washed in PBS (pH 7.2), and then stained with propidium iodide (10 mg/ml) added immediately prior to analysis. Cell fluorescence was then measured on a flow cytometer (FACSCalibur; Becton Dickinson, CA) and analyzed using CellQuest software.

PP2A-GSK3β-MCL-1 axis = assay: Immunoblotting of phosphorylated GSK3β, MCL-1 and CIP2A; type: cell-based; conditions: HCT116 and HeLa
Experimental: FIG. 16. […] (A, B) Immunoblotting analysis of lysates derived from HCT116 and HeLa cells cultured for 24 hours in either nutrient-rich DMEM (containing 10% FBS and 10 mM glucose), DMEM containing 2.5 mM glucose (glucose deprivation), DMEM with 0.1% serum (serum deprivation) or DMEM with no glutamine, no methionine and no cysteine (amino acids deprivation). Media were replenished every 6 hours.
as §1
Whole cell lysates were prepared by directly lysing cells growing in culturing dishes or collected cell pellets in lysis buffer (40 mM Hepes pH 7.5, 120 mM NaCl, 1 mM EDTA, 10 mM pyrophosphate, 10 mM glycerophosphate, 50 mM NaF, 0.5 mM orthovanadate, and EDTA-free protease inhibitors (Roche) containing 0.3% CHAPS). Lysates were prepared from frozen tumors using GentleMACS dissociator. Lysates were cleared by centrifugation at 13000 g for 15 min. at 4° C., quantified using BioRad DC protein assay reagent followed by mixing 1:1 with 4% SDS, 100 mM Tris.Cl pH 6.8, 20% glycerol, 0.1% bromophenol blue and 5% β-mercaptoethanol added immediately before use and heating at 94° C. for 7 min. Equal amounts of proteins were then electrophoresed on 8-15% SDS-PAGE gels. Gels were run at 100 V (stacking gel)/150 V (separation gel) on Protean III apparatus (BioRad). Gels were transferred onto nitrocellulose and probed with the appropriate primary antibody for a variable incubation time depending on the experimental design, followed by the corresponding secondary antibodies diluted 1:5000-10000. The proteins were visualized by enhanced chemiluminescence (ECL) using ChemiDoc apparatus (BioRad) according to the manufacturer's instructions.

HeLa cells = assay: HeLa viable cell count with DNA damaging agents (trypan blue); type: cell-based; conditions: hydroxyurea 10 mM + gemcitabine 10 nM; high (10 mM) or low (2.5 mM) glucose
Experimental: After 24 hrs treatment, cells are allowed to grow for further 24 hrs (replacing the medium with normal medium), before being harvested and counted with trypan blue to measure viable cells.
(§3) HeLa cells were seeded in 6-well plates (200,00 cells/well), and left untreated, or treated with DNA damaging agents (hydroxyurea 10 mM+gemcitabine 10 nM), in high (10 mM) or low (2.5 mM) glucose, and treated with perphenazine (PPZ) as indicated. After 24 hrs treatment, cells are allowed to grow for further 24 hrs (replacing the medium with normal medium), before being harvested and counted with trypan blue to measure viable cells.
as §3, with “FTY-720 (FTY)” for “perphenazine (PPZ)”
as §3, with “Ceramide” for “perphenazine (PPZ)”
Cells were harvested by trypsinization, washed in PBS (pH 7.2), and then stained with trypan blue solution 04% v/v (Sigma Aldrich) added immediately prior to analysis. Cells ware then counted on a TC30 automated cell counter (Biorad).

[2] = tested on: BON-1 neuroendocrine tumor cells; assay: BON-1 cell viability; type: cell-based; conditions: metformin with low (2.5 mM) glucose
Excerpt: FIG. 57. […] The assay as performed as described in the other examples.

With `CN(C)C(=N)NC(=N)N.Cl` [metformin] the tumor growth (HCT116 xenograft tumors; metformin 200 mg/kg every 48 h during fasting cycles (Met/Fast)) was “dramatically impeded”, the tumor growth (HCT116 xenograft tumors; metformin alone, ad libitum feeding, 200 mg/kg oral gavage) was “did not exert any significant tumor restraining effect” and the anti-proliferative effect [1] was “only weak anti-proliferative effects”. For the same molecule, the “glucose consumption and lactate production” value (cancer cells) was “dose and time-dependent increase in glucose consumption and lactate production”, the cell death (HCT116 and HeLa cells) was “marked cell death” and the GSK3β phosphorylation (PP2A-GSK3β-MCL-1 axis; low glucose-metformin combination) was “almost completely abolished GSK3β phosphorylation”. For the same molecule, the MCL-1 protein levels (PP2A-GSK3β-MCL-1 axis; metformin in low glucose) was “marked reduction in MCL-1 protein levels”, the “level of CIP2A” value (PP2A-GSK3β-MCL-1 axis; metformin treatment) was “reduction in the level of CIP2A” and the “cooperation with DNA damaging agents (viable cells)” value (HeLa cells) was “potentiates the effect of DNA damaging agents in low glucose”. For the same molecule, the cell viability [2] was “reduction in cell viability”.
